In ChEMBL document CHEMBL3045016, “Insecticidal compounds from the essential oil of Chinese medicinal herb Atractylodes chinensis” (2011):

system: Drosophila melanogaster; experiment: Insecticidal activity against wild type Drosophila melanogaster L. assessed as mortality compound topically applied dorsally to the thorax at 23 to 25 25 degC, 60 to 70%RH measured per adult after 3 hr; type: functional

Structure (SMILES) | LD50 [µg]
C=C[C@]1(C)CC[C@@H](C(C)(C)O)C[C@H]1C(=C)C [ALPHA-ELEMOL] | 0.65
C=C1CCC[C@]2(C)Cc3occ(C)c3C[C@@H]12 [ATRACTYLON] | 1.43
C=C1CCC[C@]2(C)CC[C@@H](C(C)(C)O)C[C@@H]12 [BETA-EUDESMOL] | 2.63
C=C(C)[C@@H]1CC[C@@]2(C)CCCC(=C)[C@@H]2C1 [BETA-SELINENE] | 0.55
CC1=CCC[C@H](C)[C@@]12CC[C@@H](C(C)(C)O)C2 [HINESOL] | 0.71
